Key:
Type in all cases: in vivo
[1] = test system: bulrush; assay: Test Example 2: herbicidal effects during the vegetation period under submerged conditions; settings: treatment during the vegetation period under submerged conditions; dose 2.52 g/a
Method in brief: (§1)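 Barnyardgrass, bulrush and ducksalad were co-sown in alluvial soil flooded to 4 cm and grown in a greenhouse at 25 to 30° C. At the 1- or 2-leaf stage, water-diluted emulsifiable concentrates went onto the water surface at set doses (g/a). Herbicidal effect was scored three weeks later on a graded scale.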

[2] = test system: ducksalad; assay: as above; settings: treatment during the vegetation period under submerged conditions; dose 2.52 g/a
Method in brief: as §1

[3] = test system: barnyardgrass; assay: as above; settings: treatment during the vegetation period under submerged conditions; dose 2.52 g/a
Method in brief: as §1

[4] = test system: bulrush; assay: Test Example 1: herbicidal effects in preemergence treatment under submerged conditions; settings: dose 2.52 g/a
Method in brief: (§2)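 Score 0–5 by mortality (5: ≥90%; 0: <5%), read 3 weeks post-application. Paddy-type cups: alluvial soil under 4 cm water, weeds seeded plus transplanted 2.5-leaf rice; diluted EC dosed onto water surface same day as sowing, g/a basis; greenhouse 25 to 30° C.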

[5] = test system: ducksalad; assay: as above; settings: dose 2.52 g/a
Method in brief: as §2

[6] = test system: barnyardgrass; assay: as above; settings: dose 2.52 g/a
Method in brief: as §2

[7] = test system: transplanted rice; assay: Test Example 1: preemergence treatment under submerged conditions, effect on crop; settings: dose 2.52 g/a
Method in brief: as §2

[8] = test system: giant foxtail; assay: Test Example 3: herbicidal effects in soil treatment; settings: dose 3.2 g/a
Method in brief: (§3)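 Seeds were sown in sterilized diluvial soil and covered with about 1.5 cm of soil. Compounds, formulated as emulsifiable concentrates and diluted with water, were sprayed evenly over the soil surface at set doses in g/a. Herbicidal effect was scored on a rating scale three weeks later.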

[9] = test system: water foxtail; assay: as above; settings: dose 3.2 g/a
Method in brief: as §3

[10] = test system: beadstraw; assay: as above; settings: dose 3.2 g/a
Method in brief: as §3

[11] = test system: redroot pigweed; assay: as above; settings: dose 3.2 g/a
Method in brief: as §3

[12] = test system: wild oat; assay: as above; settings: dose 3.2 g/a
Method in brief: as §3

[13] = test system: common ragweed; assay: as above; settings: dose 3.2 g/a
Method in brief: as §3

[14] = test system: velvetleaf; assay: as above; settings: dose 3.2 g/a
Method in brief: as §3

[15] = test system: common lambsquater; assay: as above; settings: dose 3.2 g/a
Method in brief: as §3

[16] = test system: Italian ryegrass; assay: as above; settings: dose 3.2 g/a
Method in brief: as §3

[17] = test system: barnyardgrass; assay: as above; settings: dose 3.2 g/a
Method in brief: as §3

[18] = test system: large crabgrass; assay: as above; settings: dose 3.2 g/a
Method in brief: as §3

[19] = test system: posumbu knotweed; assay: as above; settings: dose 3.2 g/a
Method in brief: as §3

[20] = test system: common chickweed; assay: as above; settings: dose 3.2 g/a
Method in brief: as §3

[21] = test system: giant foxtail; assay: Test Example 4: herbicidal effect in foliage treatment; settings: dose 3.2 g/a, three weeks after the application
Method in brief: (§4)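 Seeds sown in sterilized diluvial soil under ~1.5 cm soil cover and grown 14 days in a greenhouse at 25 to 30° C. Emulsifiable concentrates diluted with water were then sprayed uniformly on foliage at predetermined doses (g/a). Herbicidal effect was scored three weeks after application on a graded evaluation scale.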

[22] = test system: water foxtail; assay: as above; settings: dose 3.2 g/a, three weeks after the application
Method in brief: as §4

[23] = test system: beadstraw; assay: as above; settings: dose 3.2 g/a, three weeks after the application
Method in brief: as §4

[24] = test system: redroot pigweed; assay: as above; settings: dose 3.2 g/a, three weeks after the application
Method in brief: as §4

[25] = test system: wild oat; assay: as above; settings: dose 3.2 g/a, three weeks after the application
Method in brief: as §4

[26] = test system: common ragweed; assay: as above; settings: dose 3.2 g/a, three weeks after the application
Method in brief: as §4

[27] = test system: velvetleaf; assay: as above; settings: dose 3.2 g/a, three weeks after the application
Method in brief: as §4

[28] = test system: common lambsquater; assay: as above; settings: dose 3.2 g/a, three weeks after the application
Method in brief: as §4

[29] = test system: Italian ryegrass; assay: as above; settings: dose 3.2 g/a, three weeks after the application
Method in brief: as §4

[30] = test system: barnyardgrass; assay: as above; settings: dose 3.2 g/a, three weeks after the application
Method in brief: as §4

[31] = test system: large crabgrass; assay: as above; settings: dose 3.2 g/a, three weeks after the application
Method in brief: as §4

[32] = test system: posumbu knotweed; assay: as above; settings: dose 3.2 g/a, three weeks after the application
Method in brief: as §4

[33] = test system: common chickweed; assay: as above; settings: dose 3.2 g/a, three weeks after the application
Method in brief: as §4

Structure (SMILES)	B: bulrush, herbicidal effect (evaluation scale 0-5) [1]	C: ducksalad, herbicidal effect (evaluation scale 0-5) [2]	A: barnyardgrass, herbicidal effect (evaluation scale 0-5) [3]	B: bulrush, herbicidal effect (evaluation scale 0-5) [4]	C: ducksalad, herbicidal effect (evaluation scale 0-5) [5]	A: barnyardgrass, herbicidal effect (evaluation scale 0-5) [6]	a: transplanted rice, effect on crop (evaluation scale 0-5) [7]	herbicidal effect, E: giant foxtail [8]	herbicidal effect, G: water foxtail [9]	herbicidal effect, O: beadstraw [10]	herbicidal effect, K: redroot pigweed [11]	herbicidal effect, F: wild oat [12]	herbicidal effect, J: common ragweed [13]	herbicidal effect, I: velvetleaf [14]	herbicidal effect, L: common lambsquater [15]	herbicidal effect, H: Italian ryegrass [16]	herbicidal effect, A: barnyardgrass [17]	herbicidal effect, D: large crabgrass [18]	herbicidal effect, M: posumbu knotweed [19]	herbicidal effect, N: common chickweed [20]	other results
CCOC(=O)N(c1ccccc1CN1OCCCC1=O)S(=O)(=O)C(F)(F)F [III-13]	5 (mortality of 90% or above (nearly complete death))	5 (mortality of 90% or above (nearly complete death))	5 (mortality of 90% or above (nearly complete death))	5 (mortality of 90% or above (nearly complete death))	5 (mortality of 90% or above (nearly complete death))	5 (mortality of 90% or above (nearly complete death))	1 (mortality of at least 5% and less than 20%)	5 (mortality of 90% or above (nearly complete death))	5 (mortality of 90% or above (nearly complete death))	0 (mortality of less than 5% (almost ineffective))	3 (mortality of at least 40% and less than 70%)	3 (mortality of at least 40% and less than 70%)	5 (mortality of 90% or above (nearly complete death))	5 (mortality of 90% or above (nearly complete death))	0 (mortality of less than 5% (almost ineffective))	5 (mortality of 90% or above (nearly complete death))	5 (mortality of 90% or above (nearly complete death))	5 (mortality of 90% or above (nearly complete death))	0 (mortality of less than 5% (almost ineffective))	4 (mortality of at least 70% and less than 90%)	E: giant foxtail, herbicidal effect [21]: 5 (mortality of 90% or above (nearly complete death)); G: water foxtail, herbicidal effect [22]: 5 (mortality of 90% or above (nearly complete death)); O: beadstraw, herbicidal effect [23]: 4 (mortality of at least 70% and less than 90%); K: redroot pigweed, herbicidal effect [24]: 0 (mortality of less than 5% (almost ineffective)); F: wild oat, herbicidal effect [25]: 0 (mortality of less than 5% (almost ineffective)); J: common ragweed, herbicidal effect [26]: 4 (mortality of at least 70% and less than 90%); I: velvetleaf, herbicidal effect [27]: 5 (mortality of 90% or above (nearly complete death)); L: common lambsquater, herbicidal effect [28]: 0 (mortality of less than 5% (almost ineffective)); H: Italian ryegrass, herbicidal effect [29]: 4 (mortality of at least 70% and less than 90%); A: barnyardgrass, herbicidal effect [30]: 5 (mortality of 90% or above (nearly complete death)); D: large crabgrass, herbicidal effect [31]: 5 (mortality of 90% or above (nearly complete death)); M: posumbu knotweed, herbicidal effect [32]: 0 (mortality of less than 5% (almost ineffective)); N: common chickweed, herbicidal effect [33]: 4 (mortality of at least 70% and less than 90%)
CC(C)COC(=O)N(c1ccccc1CN1OCCCC1=O)S(=O)(=O)C(F)(F)F [III-15]	5 (mortality of 90% or above (nearly complete death))	5 (mortality of 90% or above (nearly complete death))	5 (mortality of 90% or above (nearly complete death))	5 (mortality of 90% or above (nearly complete death))	5 (mortality of 90% or above (nearly complete death))	5 (mortality of 90% or above (nearly complete death))	2 (mortality of at least 20% and less than 40%)	5 (mortality of 90% or above (nearly complete death))	5 (mortality of 90% or above (nearly complete death))	0 (mortality of less than 5% (almost ineffective))	2 (mortality of at least 20% and less than 40%)	0 (mortality of less than 5% (almost ineffective))	3 (mortality of at least 40% and less than 70%)	4 (mortality of at least 70% and less than 90%)	0 (mortality of less than 5% (almost ineffective))	3 (mortality of at least 40% and less than 70%)	5 (mortality of 90% or above (nearly complete death))	5 (mortality of 90% or above (nearly complete death))	0 (mortality of less than 5% (almost ineffective))	4 (mortality of at least 70% and less than 90%)	E: giant foxtail, herbicidal effect [21]: 4 (mortality of at least 70% and less than 90%); G: water foxtail, herbicidal effect [22]: 5 (mortality of 90% or above (nearly complete death)); O: beadstraw, herbicidal effect [23]: 3 (mortality of at least 40% and less than 70%); K: redroot pigweed, herbicidal effect [24]: 2 (mortality of at least 20% and less than 40%); F: wild oat, herbicidal effect [25]: 0 (mortality of less than 5% (almost ineffective)); J: common ragweed, herbicidal effect [26]: 4 (mortality of at least 70% and less than 90%); I: velvetleaf, herbicidal effect [27]: 4 (mortality of at least 70% and less than 90%); L: common lambsquater, herbicidal effect [28]: 0 (mortality of less than 5% (almost ineffective)); H: Italian ryegrass, herbicidal effect [29]: 3 (mortality of at least 40% and less than 70%); A: barnyardgrass, herbicidal effect [30]: 5 (mortality of 90% or above (nearly complete death)); D: large crabgrass, herbicidal effect [31]: 5 (mortality of 90% or above (nearly complete death)); M: posumbu knotweed, herbicidal effect [32]: 0 (mortality of less than 5% (almost ineffective)); N: common chickweed, herbicidal effect [33]: 3 (mortality of at least 40% and less than 70%)

From patent publication US20120029187A1, “HALOALKYLSULFONANILIDE DERIVATIVE” (Nissan Chemical Industries, Ltd., priority 2009, published 2012)
